Data on two compounds can be found in patent US11096942B2, “Heterocyclic compounds and uses thereof” (Celgene CAR LLC, priority 2010, dated 2021).

Molecules are shown by their SMILES.

For one test, the target named is pEGFR in H1975 cells (Homo sapiens (Human), UniProt P00533, L858R/T790M). As to the kind of experiment: Washout experiment in H1975 cells. The test is classed as cell-based. To be noted: 500 nM for 1 hr, then washout. The method, then: Washout Experiment in H1975 Cells Containing EGFR Deletion/T790M Mutation
Cells were plated in Growth Media supplemented with 10% FBS and 1% P/S at a density of 2.0×10^5 cells per well in 12 well tissue culture plates. Cells were allowed to settle down for 4 hrs and then maintained in low-serum (0.1% FBS) media overnight.
The following morning the media was removed and the cells were treated with 500 nM test compound in low-serum media for 1 hr. The cells were washed free of compound 2× with PBS (Invitrogen). One set of cells were immediately lysed as indicated above as the 0 hr time point. The remaining cells were incubated with complete RPMI-1640 growth media (10% FBS) for 1, 3, 6 and 24 hr. For the first 1 hr, cells were washed 2× with PBS every 30 min. DMSO (0.5%) controls were collected at the 0, 3, 6 and 24 hr time points.

Test [1] deals with EGFR L858R/T790M (H1975 cells) (Homo sapiens (Human), UniProt P00533, L858R/T790M). As to the kind of experiment: Phospho-EGFR signaling immunoblot (1 hr), H1975 cells. The test is classed as cell-based. To be noted: WT EGFR (A431) vs H1975. The procedure:
(§1) A431 human epidermoid carcinoma, H1975 human NSCLC and HCC827 human NSCLC adenocarcinoma cells were obtained from the American Type Culture Center (Manassas, Va.). A431 cells were grown in DMEM (Invitrogen, Carlsbad, Calif.) supplemented with 10% FBS (HyClone, South Logan, Utah) and 1% Penicillin-Streptomycin (P/S, Lonza, Walkersville, Md.).
All primary antibodies were obtained from Cell Signaling (Danvers, Mass.) and used at 1:1000. Secondary antibodies were used at 1:10,000. Goat anti-mouse IgG IRDye 800CW antibody was obtained from LiCor Biosciences (Lincoln, Nebr.) and goat anti-rabbit IgG Alexa Fluor 680 was obtained from Invitrogen.
Cells were grown in 12-well plates (Corning, Coring, N.Y.) to 90% confluence and then incubated in low-serum (0.1% FBS) media for 16-18 hr. […] A431 cells were then stimulated with 50 ng/ml EGF (Peprotech, Rocky Hill, N.J.) for 15 min. After treatment, cell monolayers were washed with cold PBS (Invitrogen) and immediately lysed by scrapping into 60 uL cold Cell Extraction Buffer (Invitrogen) supplemented with Complete Protease inhibitors (Roche, Indianapolis, Ind.) and PhosphoSTOP (Roche) phosphatase inhibitors.
Phospho-protein signals were quantitated using Odyssey Infrared Imaging (Li-Cor Biosciences).
To assess phosphor-EGFR signaling, blots were probed with rabbit anti-Phospho-EGFR (Y1068) and mouse total anti-EGFR antibodies. Phospho-EGFR signal was normalized to total EGFR expression for each sample. […] Normalized data was fitted using a sigmoidal curve analysis program (Graph Pad Prism version 5) with variable Hill slope to determine the EC50 values.

Test [2] has as its system H1975 cells (EGFR L858R/T790M). As to the kind of experiment: Cell proliferation (CellTiter Glo, 72 hr), H1975 cells. It counts as cell-based, human. To be noted: proliferation, WT EGFR (A431) vs H1975. The procedure:
as §1
(§2) Cells were plated in Growth Media supplemented with 5% FBS and 1% P/S at a density of 3,000 cells per well in 96 well tissue culture plates (Corning). […] Growth inhibition (GI50) values were determined by Graph Pad Prism.

Test [3] concerns HCC827 cells (EGFR delE746-A750). As to the kind of experiment: Cell proliferation (CellTiter Glo, 72 hr), HCC827 cells. The test is classed as cell-based, human. To be noted: proliferation, WT EGFR (A431) vs HCC827. The method, then:
as §1, §2
(Cellular ATP, detected with luciferase, serves as a proxy for viable cell number.)

Consider `C=CC(=O)Nc1cccc(Nc2nc(Nc3ccc(N4CCOCC4)cc3OC)ncc2C(F)(F)F)c1` [Compound I-2, N-(3-(2-(2-methoxy-4-morpholinophenylamino)-5-(trifluoromethyl)pyrimidin-4-ylamino)phenyl)acrylamide], for which the “duration of action after compound removal” value at pEGFR in H1975 cells is reported as “prolonged duration of action after compound removal”. In addition, the “Ratio WT/mutant” value in test [1] was above 50; in test [2] it was above 20; in test [3] it was above 40.
`C=CC(=O)Nc1cccc(Nc2nc(Nc3ccc(N4CCN(C(C)=O)CC4)cc3OC)ncc2C(F)(F)F)c1` [Compound I-4, N-(3-(2-(4-(4-acetylpiperazin-1-yl)-2-methoxyphenylamino)-5-(trifluoromethyl)pyrimidin-4-ylamino)phenyl)acrylamide]: on pEGFR in H1975 cells, the “duration of action after compound removal” value is recorded as “prolonged duration of action after compound removal”.
